This experiment concerns the target T1, SMO (Mus musculus, UniProt P56726).
T1 construct: endogenous in cells; host or cells: C3H10T1/2 (ATCC #CCL-226)
As to the kind of experiment: Smoothened (SMO)/Sonic Hedgehog (SHh) Transient Transcriptional Activation Assay (Gli-luciferase reporter in C3H10T1/2 cells). The class given is cell-based, murine. The following applies: SHh 250 ng/ml, 20 hrs; for inhibition at 2 µM: C3H 10T1/2, 2 μM test compound, read-out: SMO CELL % INHIBITION @ 2 μM. A digest of the protocol:
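Luminescence (Dual-Glo) measured after 20 h co-exposure at 37 °C to 250 ng/ml human SHh and compound at 2 uM down to 2 nM final. Cells were C3H10T1/2 carrying a transfected murine 10× Gli response-element luciferase construct with pEGFP, starved 20 h in 0.5% calf serum beforehand.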

This note sets out measurements from patent US20100029615A1, “BENZIMIDAZOLE DERIVATIVES” (priority 2006, published 2010).

Where a name gives a salt, the structure may show the parent alone.

T1 sequence (P56726 33-793): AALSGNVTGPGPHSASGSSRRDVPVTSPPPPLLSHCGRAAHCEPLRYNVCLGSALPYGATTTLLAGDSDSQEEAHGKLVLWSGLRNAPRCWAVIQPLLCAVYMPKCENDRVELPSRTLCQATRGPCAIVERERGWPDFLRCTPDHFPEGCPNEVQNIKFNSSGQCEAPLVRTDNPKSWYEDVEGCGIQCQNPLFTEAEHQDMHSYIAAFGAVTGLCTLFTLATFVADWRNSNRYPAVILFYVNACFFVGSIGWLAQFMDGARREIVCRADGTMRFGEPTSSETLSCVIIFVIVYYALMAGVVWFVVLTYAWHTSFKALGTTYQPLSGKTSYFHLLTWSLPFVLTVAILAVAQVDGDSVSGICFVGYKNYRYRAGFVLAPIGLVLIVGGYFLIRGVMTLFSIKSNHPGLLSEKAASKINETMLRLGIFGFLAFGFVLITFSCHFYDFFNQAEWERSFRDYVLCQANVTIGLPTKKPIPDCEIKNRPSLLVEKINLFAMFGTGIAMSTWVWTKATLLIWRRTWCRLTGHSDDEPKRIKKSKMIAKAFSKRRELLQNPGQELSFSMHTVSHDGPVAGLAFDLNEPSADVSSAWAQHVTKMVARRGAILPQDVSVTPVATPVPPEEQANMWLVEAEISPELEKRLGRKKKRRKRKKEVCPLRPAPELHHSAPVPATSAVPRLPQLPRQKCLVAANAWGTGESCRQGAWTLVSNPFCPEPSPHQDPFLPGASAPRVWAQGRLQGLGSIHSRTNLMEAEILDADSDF

As for `O=C(N[C@@H]1CCC[C@H](c2nc3ccccc3[nH]2)C1)c1n[nH]c2ccccc12` [Example 199, N-[(1R,3S)-3-(1H-benzimidazol-2-yl)cyclohexyl]-1H-indazole-3-carboxamide triflouroacetate], the inhibition at 2 µM is 67%.
For `CN1CCCc2cc(C(=O)N[C@@H]3CCC[C@H](c4nc5ccccc5[nH]4)C3)ccc21` [Example 200, N-[(1R,3S)-3-(1H-benzimidazol-2-yl)cyclohexyl]-1-methyl-1,2,3,4-tetrahydroquino-line-6-carboxamide HCl], the inhibition at 2 µM is 110%.
As to `CN1CCCc2cc(C(=O)N[C@@H]3CCC[C@H](c4nc5ccccc5[nH]4)C3)ccc21` [Example 201, N-[(1R,3S)-3-(1H-benzimidazol-2-yl)cyclohexyl]-1-methyl-1,2,3,4-tetrahydroquino-line-6-carboxamide triflouroacetate], the “SMO CELL % INHIBITION @ 2 μM” value (2 μM test compound, 2 µM) is 101%.
Take `O=C(N[C@@H]1CCC[C@H](c2nc3ccccc3[nH]2)C1)c1ccc2snnc2c1` [Example 202, N-[(1R,3S)-3-(1H-benzimidazol-2-yl)cyclohexyl]-1,2,3-benzothiadiazole-5-carboxamide triflouroacetate]: the inhibition at 2 µM worked out at 34%.
Still for that read-out and setting: the figure for `O=C(N[C@@H]1CCC[C@H](c2nc3ccccc3[nH]2)C1)c1ccc2cc[nH]c2c1` [Example 203, N-[(1R,3S)-3-(1H-benzimidazol-2-yl)cyclohexyl]-1H-indole-6-carboxamide triflouroacetate] is 109%.
On the same count and under the same terms, the result for `Cc1nn(C)c2sc(C(=O)N[C@@H]3CCC[C@H](c4nc5ccccc5[nH]4)C3)cc12` [Example 204, N-[(1R,3S)-3-(1H-benzimidazol-2-yl)cyclohexyl]-1,3-dimethyl-1H-thieno[2,3-c]pyrazole-5-carboxamide triflouroacetate] reads 103%; that for `O=C(N[C@@H]1CCC[C@H](c2nc3ccccc3[nH]2)C1)c1c[nH]c2ccccc12` [Example 205, N-[(1R,3S)-3-(1H-benzimidazol-2-yl)cyclohexyl]-1H-indole-3-carboxamide triflouroacetate], 54%; that for `O=C(N[C@@H]1CCC[C@H](c2nc3ccccc3[nH]2)C1)c1ccc2nsnc2c1` [Example 206, N-[(1R,3S)-3-(1H-benzimidazol-2-yl)cyclohexyl]-2,1,3-benzothiadiazole-5-carboxamide triflouroacetate], 56%.
The same measure, in the same setting: the figure for `O=C(N[C@@H]1CCC[C@H](c2nc3ccccc3[nH]2)C1)[C@H]1CCc2ccccc2O1` [Example 207, (2R)-N-[(1R,3S)-3-(1H-benzimidazol-2-yl)cyclohexyl]-chromane-2-carboxamide triflouroacetate] is 107%; for `COc1cccc2[nH]c(C(=O)N[C@@H]3CCC[C@H](c4nc5ccccc5[nH]4)C3)cc12` [Example 208, N-[(1R,3S)-3-(1H-benzimidazol-2-yl)cyclohexyl]-4-methoxy-1H-indole-2-carboxamide triflouroacetate] it is 80%.
For `O=C(N[C@@H]1CCC[C@H](c2nc3ccccc3[nH]2)C1)c1cc2ccc(F)cc2[nH]1` [Example 209, N-[(1R,3S)-3-(1H-benzimidazol-2-yl)cyclohexyl]-6-fluoro-1H-indole-2-carboxamide triflouroacetate], the inhibition at 2 µM amounted to 32%.
Still for that read-out and setting: the result for `O=C(N[C@@H]1CCC[C@H](c2nc3ccccc3[nH]2)C1)c1cc2ccc(Cl)cc2[nH]1` [Example 210, N-[(1R,3S)-3-(1H-benzimidazol-2-yl)cyclohexyl]-6-chloro-1H-indole-2-carboxamide triflouroacetate] reads 88%; that for `COc1ccc2cc(C(=O)N[C@@H]3CCC[C@H](c4nc5ccccc5[nH]4)C3)[nH]c2c1` [Example 211, N-[(1R,3S)-3-(1H-benzimidazol-2-yl)cyclohexyl]-6-methoxy-1H-indole-2-carboxamide triflouroacetate], 89%.
As to `O=C(N[C@@H]1CCC[C@H](c2nc3ccccc3[nH]2)C1)c1n[nH]c2c1CCCCCC2` [Example 212, N-[(1R,3S)-3-(1H-benzimidazol-2-yl)cyclohexyl]-4,5,6,7,8,9-hexahydro-1H-cycloocta[c] pyrazole-3-carboxamide triflouroacetate], the inhibition at 2 µM turned out to be 71%.
Take `O=C(N[C@@H]1CCC[C@H](c2nc3ccccc3[nH]2)C1)c1ccc2oc(=O)[nH]c2c1` [Example 213, N-[(1R,3S)-3-(1H-benzimidazol-2-yl)cyclohexyl]-2-oxo-2,3-dihydro-1,3-benzoxazole-5-carboxamide triflouroacetate]: the inhibition at 2 µM is 73%.
Regarding `CCc1c(C(=O)N[C@@H]2CCC[C@H](c3nc4ccccc4[nH]3)C2)[nH]c2ccccc12` [Example 214, N-[(1R,3S)-3-(1H-benzimidazol-2-yl)cyclohexyl]-3-ethyl-1H-indole-2-carboxamide triflouroacetate], the inhibition at 2 µM stood at 100%.
Regarding `Cc1nc2cc(C(=O)N[C@@H]3CCC[C@H](c4nc5ccccc5[nH]4)C3)ccc2s1` [Example 215, N-[(1R,3S)-3-(1H-benzimidazol-2-yl)cyclohexyl]-2-methyl-1,3-benzothiazole-5-carboxamide triflouroacetate], the inhibition at 2 µM was 46%.
For the compound `O=C(N[C@@H]1CCC[C@H](c2nc3ccccc3[nH]2)C1)c1ccc2scnc2c1` [Example 216, N-[(1R,3S)-3-(1H-benzimidazol-2-yl)cyclohexyl]-1,3-benzothiazole-5-carboxamide triflouroacetate], the inhibition at 2 µM came to 86%.
For `Cn1c(=O)[nH]c2cc(C(=O)N[C@@H]3CCC[C@H](c4nc5ccccc5[nH]4)C3)ccc21` [Example 217, N-[(1R,3S)-3-(1H-benzimidazol-2-yl)cyclohexyl]-1-methyl-2-oxo-2,3-dihydro-1H-benzimidazole-5-carboxamide triflouroacetate], the inhibition at 2 µM was determined as 85%.
Same read-out and setting: the figure for `O=C(N[C@@H]1CCC[C@H](c2nc3ccccc3[nH]2)C1)[C@@H]1CCc2ccccc2O1` [Example 218, (2S)-N-[(1R,3S)-3-(1H-benzimidazol-2-yl)cyclohexyl] chromane-2-carboxamide triflouroacetate] is 96%.
Turning to `O=C1Cc2cc(C(=O)N[C@@H]3CCC[C@H](c4nc5ccccc5[nH]4)C3)ccc2N1` [Example 219, N-[(1R,3S)-3-(1H-benzimidazol-2-yl)cyclohexyl]-2-oxoindoline-5-carboxamide triflouroacetate], the inhibition at 2 µM came to 87%.
`O=C1CCc2cc(C(=O)N[C@@H]3CCC[C@H](c4nc5ccccc5[nH]4)C3)ccc2N1` [Example 220, N-[(1R,3S)-3-(1H-benzimidazol-2-yl)cyclohexyl]-2-oxo-1,2,3,4-tetrahydroquin-oline-6-carboxamide triflouroacetate]: the inhibition at 2 µM was determined as 81%.
On the same count and under the same terms, the result for `CCc1ccc2nc(C(=O)N[C@@H]3CCC[C@H](c4nc5ccccc5[nH]4)C3)cn2c1` [Example 221, N-[(1R,3S)-3-(1H-benzimidazol-2-yl)cyclohexyl]-6-ethylimidazo[1,2-a]pyridine-2-carboxamide triflouroacetate] reads 48%; that for `COc1cc(C(=O)N[C@@H]2CCC[C@H](c3nc4ccccc4[nH]3)C2)cc2c1OCO2` [Example 222, N-[(1R,3S)-3-(1H-benzimidazol-2-yl)cyclohexyl]-7-methoxy-1,3-benzodioxole-5-carboxamide triflouroacetate], 52%.
Same read-out and setting: the figure for `O=C(N[C@@H]1CCC[C@H](c2nc3ccc(C(F)(F)F)cc3[nH]2)C1)c1ccc2c(c1)OCCO2` [Example 223, N-((1R,3S)-3-[6-(trifluoromethyl)-1H-benzimidazol-2-yl]cyclohexyl]-2,3-dihydro-1,4-benzodioxine-6-carboxamide HCl] is 105%; for `O=C(N[C@@H]1CCC[C@H](c2nc3ccc(Br)cc3[nH]2)C1)c1ccc2c(c1)OCCO2` [Example 224, N-[(1R,3S)-3-(6-bromo-1H-benzimidazol-2-yl)cyclohexyl]-2,3-dihydro-1,4-benzodioxine-6-carboxamide HCl] it is 106%.
On the same count and under the same terms, the figure for `O=C(NCCCCl)N[C@@H]1CCC[C@H](c2nc3ccccc3[nH]2)C1` [Example 225, 1-((1R,3S)-3-(1H-benzo[d]imidaz-ol-2-yl)cyclohexyl)-3-(3-chloropropyl)-urea] is 70%; for `O=C(NC1CCCC1)N[C@@H]1CCC[C@H](c2nc3ccccc3[nH]2)C1` [Example 226, 1-((1R,3S)-3-(1H-benzo[d]imidaz-ol-2-yl)cyclohexyl)-3-cyclopentylurea] it is 63%.
Consider `O=C(Nc1cc(Cl)cc(Cl)c1)N[C@@H]1CCC[C@H](c2nc3ccccc3[nH]2)C1` [Example 227, 1-[(1R,3S)-3-(1H-benzimidazol-2-yl)cyclohexyl]-3-(3,5-dichlorophenyl) urea], for which the inhibition at 2 µM stood at 115%.
As to `N#Cc1ccc(NC(=O)N[C@@H]2CCC[C@H](c3nc4ccccc4[nH]3)C2)cc1` [Example 228, 1-[(1R,3S)-3-(1H-benzimidazol-2-yl)cyclohexyl]-3-(4-cyanophenyl) urea], the inhibition at 2 µM worked out at 109%.
As for `O=C(Nc1ccc(-c2ccccc2)s1)N[C@@H]1CCC[C@H](c2nc3ccccc3[nH]2)C1` [Example 229, 1-[(1R,3S)-3-(1H-benzimidazol-2-yl)cyclohexyl]-3-(5-phenyl-2-thienyl)urea], the inhibition at 2 µM was found to be 108%.
Turning to `O=C(Nc1cc(F)cc2c1OCOC2)N[C@@H]1CCC[C@H](c2nc3ccccc3[nH]2)C1` [Example 230, 1-[(1R,3S)-3-(1H-benzimidazol-2-yl)cyclohexyl]-3-(6-fluoro-4H-1,3-benzodioxol-8-yl)urea], the inhibition at 2 µM came out at 111%.
Regarding `N#Cc1cccc(NC(=O)N[C@@H]2CCC[C@H](c3nc4ccccc4[nH]3)C2)c1` [Example 231, 1-[(1R,3S)-3-(1H-benzimidazol-2-yl)cyclohexyl] 3-(3-cyanophenyl)-urea], the inhibition at 2 µM was 103%.

By inhibition is commonly meant the drop in the measured response relative to a control, in per cent.
